Read-outs that look alike come from different tables or passages of the source. No end group written: not given here.
Experiments:
E. coli ATCC 25922 [1] = assay: Flow cytometric viability assay with membrane potential sensitive dye DiBAC4(3); type: cell-based; conditions: 20 µg/ml peptide, 1.5x10^6 bacteria/ml in Schaedler Broth 1:6, 37°C, 90 minutes, then DiBAC4(3) 10 minutes, 10000 events
Protocol: (§1) The clinical isolate H. pylori KaE1 and the reference strains H. pylori DSM 9691, DSM 10242 and DSM 21031 were tested for susceptibility towards defensins, LL37 and elafin (amino acid sequences Table S1). The strain H. pylori DSM 10242 is positive for the virulence factors VacA and CagA. As control strain for antimicrobial activity served the sensitive E. coli ATCC 25922.
(§2) Bacterial viability after incubation with antimicrobial peptides or biopsy extracts was analyzed with the membrane potential sensitive dye DiBAC4(3) (bis-(1,3-dibutylbarbituric acid) trimethine oxonol) (Invitrogen, Carlsbad, CA, USA) as described previously. Briefly, 1.5x10^6 mid-logarithmic-phase bacteria/ml of H. pylori or E. coli in Schaedler Broth 1:6 were incubated with 20 µg/ml HBD1-4 (Peptide Institute, Osaka, Japan), elafin (Proteo Biotech, Kiel, Germany for FACS analysis and RDA and elafin from Peptide Institute, Osaka for CFU determination), with LL37 (Innovagen, Lund, Sweden) or with 10 µg total protein of antrum biopsy extracts at 37°C. After 90 minutes 1 µg/ml DiBAC4(3) was added to the suspensions and further incubated for 10 minutes. Then, the suspensions were centrifuged with 4500 x g for 10 minutes, pellets resuspended in 300 µl PBS and bacterial fluorescence was analyzed by a FACSCalibur^TM (BD, Sparks, USA), using Cell Quest software (BD, Sparks, USA). In each sample 10000 bacterial events were analyzed for green fluorescence and the antimicrobial activity was determined as percentage of depolarized, fluorescent bacteria. Inhibition of bacterial growth was tested by plating aliquots on Columbia blood agar and incubating at 37 C° for 2 days in a microaerophilic atmosphere with CampyGen (Oxoid, Hampshire, UK). Then colony forming units (CFU) were counted.

[2] = tested on: H. pylori KaE1, DSM 9691, DSM 10242 and DSM 21031; assay: Flow cytometric viability assay with DiBAC4(3), four H. pylori strains; type: cell-based; conditions: all 4 H. pylori strains; 20 µg/ml peptide, Schaedler Broth 1:6, 37°C, 90 minutes, DiBAC4(3)
Protocol: as §1
(§3) H. pylori strains were cultured on Columbia blood agar at 37 C° for 2 days in a microaerophilic atmosphere with CampyGen (Oxoid, Hampshire, UK). Subsequently the bacteria were suspended in Schaedler Broth (BD, Sparks, USA) diluted 1:6 with aqua dest. for incubation with antimicrobial peptides.
as §2

H. pylori DMS 9691 = assay: Plating on Columbia blood agar with CFU counting; type: cell-based; conditions: peptide 20 µg/ml, means of two independent experiments, control 8.85 x 10^5
Protocol: as §3, §2

H. pylori DSM 10242 [3] = assay: Plating on Columbia blood agar with CFU counting; type: cell-based; conditions: peptide 20 µg/ml, means of two independent experiments, control 6.10 x 10^5
Protocol: as §3, §2

H. pylori DSM 21031 [4] = assay: Plating on Columbia blood agar with CFU counting; type: cell-based; conditions: peptide 20 µg/ml, means of two independent experiments, control 7.45 x 10^5
Protocol: as §3, §2

H. pylori KaE = assay: Plating on Columbia blood agar with CFU counting; type: cell-based; conditions: peptide 20 µg/ml, means of two independent experiments, control 1.42 x 10^6
Protocol: as §3, §2

[5] = tested on: H. pylori KaE1, DSM 9691, DSM 10242 and DSM 21031; assay: Radial diffusion assay, four H. pylori strains; type: cell-based; conditions: 20 µg peptide per well, 3 days, 37 °C; for zones of inhibition in radial diffusion assay: all four Helicobacter strains, microaerophilic
Protocol: (§4) Additionally to determine inhibition of bacterial growth we performed radial diffusion assays with a modified protocol of the procedure from Robert Lehrer et al.. Briefly, H. pylori was grown on Columbia blood agar (BD, Sparks, USA), suspended in Brain Heart Infusion diluted 1:5 with aqua dest. and plated on an agar containing 20% brain heart infusion with 5% fetal calf serum. Wells with 3 mm diameter were punched into the agar and peptides were applied equivalent to the flow cytometric assay in a concentration of 20 µg per well. The agar plates were incubated for 3 days at 37 °C in a microaerophilic atmosphere with CampyGen.

H. pylori KaE1 [6] = assay: Transmission electron microscopy of peptide-treated bacteria; type: cell-based; conditions: H. pylori KaE1, 1.5x10^8 bacteria, 200 µg peptide/ml, 2 hours
Protocol: For electron microscopy 1.5x10^8 bacteria were incubated with 200 µg peptide/ml for 2 hours. Subsequently bacteria were fixed with Karnovsky solution, embedded in agarose, coagulated, cut in blocks and fixed once more in Karnovsky. After post fixation and embedding in glycid ether the specimen were cut with an ultra microtome. Sections of 30 nm were rinsed on copper grids and investigated with a Zeiss LIBRA 120 transmission electron microscope.

H. pylori [7] = conditions: cited from earlier work; for growth inhibition: ref 19 Kawauchi et al.
Excerpt: Previously, Hase et al. had tested two H. pylori strains against the antimicrobials HBD1, HBD2 and LL37 and […], one strain tested was resistant to HBD1, while the second strain was sensitive. […] In the study by Hase et al. […] Th ...

H. pylori DSM 21031 [8] = assay: Radial diffusion assay; type: cell-based; conditions: 20 µg peptide per well, 3 days, 37 °C
Protocol: as §4

H. pylori KaE1 [9] = assay: Radial diffusion assay; type: cell-based; conditions: 20 µg peptide per well, 3 days, 37 °C
Protocol: as §4

E. coli ATCC 25922 [10] = assay: Binding of antimicrobial peptides to bacterial cells (flow cytometry, Streptavidin-PE); conditions: 20 µg/ml biotinylated LL37 or 20 µg/ml HBD2 with biotinylated HBD2-antibody, 30 minutes
Protocol: (§5) To investigate whether HBD2 and LL37 bind to the bacterial cell membrane, we incubated E. coli or H. pylori in Schaedler Broth 1:6 with 20 µg/ml biotinylated LL37 (Innovagen, Lund, Sweden) or 20 µg/ml HBD2 (Peptide Institute, Osaka, Japan) for 30 minutes. After centrifugation a biotinylated HBD2-antibody was added to the in PBS resuspended pellet of the HBD2 samples (Peprotech, Hamburg, Germany). Following washing with PBS, binding of biotinylated LL37 or of the HBD2-antibody was detected with Streptavidin-PE (BD Biosciences, Heidelberg, Germany). Suspensions incubated with HBD2 antibody and Streptavidin served as control. Fluorescence 2 of 10 000 events was measured with the FACSCalibur.

H. pylori [11] = assay: as above; conditions: 20 µg/ml biotinylated LL37 or 20 µg/ml HBD2 with biotinylated HBD2-antibody, 30 minutes
Protocol: as §5

H. pylori DSM 10242 [12] = assay: Flow cytometric viability assay with DiBAC4(3); type: cell-based; conditions: 20 µg/ml peptide, 37°C, 90 minutes
Protocol: as §1, §3
(§6) Bacterial viability after incubation with antimicrobial peptides or biopsy extracts was analyzed with the membrane potential sensitive dye DiBAC4(3) (bis-(1,3-dibutylbarbituric acid) trimethine oxonol) (Invitrogen, Carlsbad, CA, USA) as described previously. […] Then, the suspensions were centrifuged with 4500 x g for 10 minutes, pellets resuspended in 300 µl PBS and bacterial fluorescence was analyzed by a FACSCalibur^TM (BD, Sparks, USA), using Cell Quest software (BD, Sparks, USA). In each sample 10000 bacterial events were analyzed for green fluorescence and the antimicrobial activity was determined as percentage of depolarized, fluorescent bacteria. […] Then colony forming units (CFU) were counted.

H. pylori KaE1 [13] = assay: Flow cytometric viability assay with DiBAC4(3); type: cell-based; conditions: 20 µg/ml peptide, 37°C, 90 minutes
Protocol: as §1, §3, §6

| Substance | depolarized bacteria (E. coli ATCC 25922 [1]) [%] | depolarized bacteria [2] | Colony forming units (H. pylori DMS 9691) | Colony forming units (H. pylori DSM 10242 [3]) | Colony forming units (H. pylori DSM 21031 [4]) | Colony forming units (H. pylori KaE) | zones of inhibition in radial diffusion assay [5] | disintegration of bacterial cells (electron microscopy) (H. pylori KaE1 [6]) | binding to the bacterial surface (E. coli ATCC 25922 [10]) | binding to the bacterial surface (H. pylori [11]) | other results |
| --- | --- | --- | --- | --- | --- | --- | --- | --- | --- | --- | --- |
| Gly - Ile - Ile - Asn - Thr - Leu - Gln - Lys - Tyr - Tyr - Cys - Arg - Val - Arg - Gly - Gly - Arg - Cys - Ala - Val - Leu - Ser - Cys - Leu - Pro - Lys - Glu - Glu - Gln - Ile - Gly - Lys - Cys - Ser - Thr - Arg - Gly - Arg - Lys - Cys - Cys - Arg - Arg - Lys - Lys (disulfide) [HBD3, recombinant inducible defensin HBD3 (DEFB103A), Peptide Institute, Osaka] | 90 | 34-78% | 0.20 x 10^5 CFU/ml | 1.14 x 10^5 CFU/ml | 1.55 x 10^5 CFU/ml | 0.08 x 10^6 CFU/ml | pronounced zones | more pronounced disintegration |  |  | effectiveness against H. pylori among defensins (H. pylori [7]; ref 21 George et al.): most effective against H. pylori |
| Gly - Ile - Gly - Asp - Pro - Val - Thr - Cys - Leu - Lys - Ser - Gly - Ala - Ile - Cys - His - Pro - Val - Phe - Cys - Pro - Arg - Arg - Tyr - Lys - Gln - Ile - Gly - Thr - Cys - Gly - Leu - Pro - Gly - Thr - Lys - Cys - Cys - Lys - Lys - Pro (disulfide) [HBD2, human beta defensin 2, recombinant inducible defensin HBD2 (DEFB4A), Peptide Institute, Osaka] | 51 | less than 5% | 7.90 x 10^5 CFU/ml | 5.92 x 10^5 CFU/ml | 6.07 x 10^5 CFU/ml | 0.89 x 10^6 CFU/ml |  | much less disintegration | accumulated on the surface | accumulated on the surface | growth in radial diffusion assay ([5]; the two other strains (not KaE1, not DSM 21031)): not influenced; zones of inhibition in radial diffusion assay (H. pylori DSM 21031 [8]): small inhibition zones; zones of inhibition in radial diffusion assay (H. pylori KaE1 [9]): small inhibition zones; growth inhibition (H. pylori [7]; 30 µg/ml HBD2): 70%; growth inhibition (H. pylori [7]; 50 µg/ml HBD2): complete inhibition; effect on bacterial viability (H. pylori [7]; ref 20 Hase et al.): no effect on bacterial viability |
| Asp - His - Tyr - Asn - Cys - Val - Ser - Ser - Gly - Gly - Gln - Cys - Leu - Tyr - Ser - Ala - Cys - Pro - Ile - Phe - Thr - Lys - Ile - Gln - Gly - Thr - Cys - Tyr - Arg - Gly - Lys - Ala - Lys - Cys - Cys - Lys (disulfide) [HBD1, recombinant constitutive defensin HBD1 (gene name DEFB1), Peptide Institute, Osaka] | 37 | less than 5% | 8.61 x 10^5 CFU/ml | 6.85 x 10^5 CFU/ml | 7.15 x 10^5 CFU/ml | 1.32 x 10^6 CFU/ml | no zones of inhibition |  |  |  | eradication (CFU) (H. pylori [7]; 10^-5 M recombinant HBD1 in hypotonic buffer, ref 21 George et al.): absolute eradication; reduction of CFU (H. pylori [7]; 10^-7 M recombinant HBD1 in hypotonic buffer, ref 21 George et al.): about 50% |
| Leu - Leu - Gly - Asp - Phe - Phe - Arg - Lys - Ser - Lys - Glu - Lys - Ile - Gly - Lys - Glu - Phe - Lys - Arg - Ile - Val - Gln - Arg - Ile - Lys - Asp - Phe - Leu - Arg - Asn - Leu - Val - Pro - Arg - Thr - Glu - Ser [LL37, amphipathic α-helical cathelicidin LL37 (CAMP), Innovagen, Lund] | 87 | 62-85% | 0.35 x 10^5 CFU/ml | 0.15 x 10^5 CFU/ml | 0.41 x 10^5 CFU/ml | 0.09 x 10^6 CFU/ml | pronounced zones |  | accumulated on the surface | accumulated on the surface |  |
| ELDRICGYGTARCRKKCRSQEYRIGRCPNTYACCLRK (disulfide (positions not given here)) [HBD4, recombinant defensin HBD4 (DEFB104A), Peptide Institute, Osaka] | 43 |  | 8.25 x 10^5 CFU/ml | 4.95 x 10^5 CFU/ml | 6.90 x 10^5 CFU/ml | 1.26 x 10^6 CFU/ml | no zones of inhibition |  |  |  | depolarization level (H. pylori DSM 10242 [12]): 12%; depolarization level (H. pylori KaE1 [13]): 8% |
